Test results as given in patent US11766447B2, “3′3′-cyclic dinucleotide analogue comprising a cyclopentanyl modified nucleotide as sting modulator” (INSTITUTE OF ORGANIC CHEMISTRY AND BIOCHEMISTRY ASCR, V.V.I., priority 2019, dated 2023).
Where two headings read alike, the source gives them in different places.

Key:
AQ STING (G230A-R293Q) = biological target: T1, AQ STING (G230A-R293Q) (Homo sapiens, UniProt Q86WV6, G230A/H232R/R293Q); assay: Differential scanning fluorimetry (DSF) with AQ STING; assay type: binding; settings: thermal shift vs apoprotein; 150 μM CDN; truncated human AQ STING 0.1 mg/ml
T1 construct: 8xHis (N, cleaved yes); SUMO (N, cleaved yes); made in house; host or cells: E. coli Rosetta-gami B (DE3)
T1 sequence (Q86WV6 140-343 G230A/H232R/R293Q): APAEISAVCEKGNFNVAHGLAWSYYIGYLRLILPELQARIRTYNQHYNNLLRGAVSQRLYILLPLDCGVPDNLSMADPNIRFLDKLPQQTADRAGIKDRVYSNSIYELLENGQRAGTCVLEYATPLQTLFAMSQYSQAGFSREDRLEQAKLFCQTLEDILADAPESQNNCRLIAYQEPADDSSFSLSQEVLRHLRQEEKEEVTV
Method in brief: (§1)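 […] STING proteins, alone or with CDNs, in triplicate, thermally denatured on a real-time PCR cycler. Denaturing temperatures taken from first-derivative curves; shift = mean Tm of STING–CDN complex minus mean Tm of apoprotein.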

WT STING [1] = biological target: T2, WT STING (Homo sapiens, UniProt Q86WV6, H232R); assay: Digitonin assay using 293T wtSTING-FL reporter cells; assay type: cell-based; set-up: host or cells: 293T (ATCC CRL-3216), stably transfected, with 4xISRE firefly luciferase reporter; settings: 293T wtSTING-FL cells, ISRE firefly luciferase; compounds in Digitonin buffer 30 minutes, then 5 hours; 8-point curve
Target sequence in this assay (Q86WV6 whole entry H232R, the tested form may be a part): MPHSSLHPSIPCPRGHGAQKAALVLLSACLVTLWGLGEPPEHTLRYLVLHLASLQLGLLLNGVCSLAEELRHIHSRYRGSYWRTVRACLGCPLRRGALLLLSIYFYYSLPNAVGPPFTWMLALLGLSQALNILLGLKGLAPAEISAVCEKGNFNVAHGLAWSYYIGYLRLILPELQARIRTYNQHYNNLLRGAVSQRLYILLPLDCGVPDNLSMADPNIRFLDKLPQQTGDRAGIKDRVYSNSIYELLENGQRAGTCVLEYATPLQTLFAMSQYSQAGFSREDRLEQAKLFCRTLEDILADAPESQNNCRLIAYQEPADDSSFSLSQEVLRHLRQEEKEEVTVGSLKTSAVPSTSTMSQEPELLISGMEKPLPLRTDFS

WT STING [2] = biological target: T2, WT STING; assay: Differential scanning fluorimetry (DSF) with WT STING; assay type: binding; set-up: 8xHis (N, cleaved yes); SUMO (N, cleaved yes); made in house; host or cells: E. coli Rosetta-gami B (DE3); settings: thermal shift vs apoprotein; 150 μM CDN; truncated human WT STING 0.1 mg/ml
Method in brief: as §1
Target sequence in this assay (Q86WV6 140-343 H232R): as the sequence (Q86WV6 140-343 G230A/H232R/R293Q) above, with A91G, Q154R counted along it

WT STING [3] = biological target: T2, WT STING; assay: 293T WT STING standard reporter assay; assay type: cell-based; set-up: host or cells: 293T (ATCC CRL-3216), stably transfected, with 4xISRE firefly luciferase reporter; settings: 293T wtSTING-FL cells, ISRE firefly luciferase; no digitonin; 7 hours with compounds; 8-point curve
Text: Two complementary oligonucleotides of the sequence […] […] […] […] […] The oligonucleotides were mixed in equal molar amounts, hybridized, and cleaved by restriction endonucleases HindIII (cat. #. R0104S, NEB, Ipswich, USA) and BglII (cat. #R0144S, NEB, Ipswich, USA). Ultimately, they were ligated into plasmid pGL4.27 (cat. #E6651, Promega, Madison, USA) linearized with the same enzymes. As result the sequence with four ISRE sites was placed upstream of the minimum promoter of firefly luciferase reporter gene.
After 5 minutes incubation at room temperature (RT), 250 μL of the mixture was added dropwise to the cells in one well. Cells were incubated 36 hours at 37° C. with 5% CO2, and then detached with 0.05% Trypsin and 0.22 g/L EDTA (both cat. #L0941, Biowest, Riverside, USA).
Transfected cells were seeded onto poly-D-lysine coated six well plates at density 50,000 cells per 1 cm^2 in DMEM medium with high glucose containing 10% heat inactivated FBS, 30 μg/mL blasticidin (cat. #ant-b1-05, InvivoGen, San Diego, USA), 0.06 mg/ml Penicillin G and 0.1 mg/ml Streptomycin Sulfate (both cat. #. L0018, Biowest, Riverside, USA). The medium was replenished every 3-4 days until visible colonies of cells resistant to blasticidin were formed.
Blasticidin resistant cells stably expressing WT STING were further transfected with […] plasmid following the same procedure as described above. […] Homogeneous culture of stably double transfected cells was prepared by limiting dilution of cells in 96 well plates and wells with cells were selected that originated from a single cell.
The medium was removed next day and three-fold serial dilutions of compounds in 100 μl medium were added to the cells. The plates with cells were incubated for 7 hours at 37° C. with 5% CO2. After 50 μl of the medium was removed, 30 μl of ONE-Glo™ Luciferase Assay System reagent (cat. #E6120, Promega, Madison, USA) was added to each well and luminescence was read on Synergy H1 (Biotek, Winooski, USA).
Target sequence in this assay (Q86WV6 whole entry H232R, the tested form may be a part): as the sequence (Q86WV6 whole entry H232R, the tested form may be a part) above

[4] = tested on: peripheral blood mononuclear cells (PBMC); assay: Peripheral blood mononuclear cell (PBMC) assay; assay type: cell-based; settings: 1 h with compounds, washed, 15 hour incubation, average of one to four donors
Description: Selected compounds were tested in an in vitro peripheral blood mononuclear cell (PBMC) assay. […] Serially diluted tested compounds were added to wells in 50 μl of cultivation medium and cell were incubated with compounds for 1 h at 37° C. with 5% CO2. Plates with cells were then spun 500 g for 5 minutes and medium was removed. Cells were washed twice with the cell culture medium by the use of centrifugation and gently resuspended in 100 μl medium without compounds. After 15 hour incubation at 37° C. with 5% CO2, the cell culture medium was collected and the levels of interferon-alpha (INF-α), interferon-gamma (INF-γ) and tumor necrosis factor-alpha (TNF-α) were determined with ProcartaPlex Assays (ThermoFisher, Waltham, USA) and MAGPIX System (Merck KGaA, Darmstadt, Germany). […] Values reported are an average of runs from one to four donors.

[5] = PBMC, interferon-gamma level, read-out: PBMC EC50 (μM) IFN-γ
[6] = PBMC, tumor necrosis factor-alpha level, read-out: PBMC EC50 (μM) TNF-α
[7] = interferon-alpha level, read-out: PBMC EC50 (μM) IFN-α
[8] = interferon-gamma level, read-out: PBMC EC50 (μM) IFN-γ
[9] = tumor necrosis factor-alpha level, read-out: PBMC EC50 (μM) TNF-α
[10] = PBMC, interferon-alpha level, read-out: PBMC EC50 (μM) IFN-α

Structure (SMILES)	EC50 (WT STING [1])	EC50 (WT STING [3])	EC50 [4, 5]	EC50 [4, 6]	further results
Nc1ncnc2c1ncn2[C@@H]1C[C@@H]2COP(=O)(O)O[C@H]3[C@@H](F)[C@H](n4cnc5c(N)ncnc54)O[C@@H]3COP(=O)(S)O[C@H]2[C@H]1F (single isomer, unassigned) [Compound 130a]	10 nM	1000 nM			ΔTm at 150 µM (AQ STING (G230A-R293Q)): 20.7 °C; ΔTm at 150 µM (WT STING [2]): 14.7 °C
Nc1ncnc2c1ncn2[C@@H]1C[C@@H]2COP(=O)(S)OC3C(F)[C@H](n4cnc5c(N)ncnc54)O[C@@H]3COP(=O)(S)OC2C1F (single isomer, unassigned) [Compound 102d]	10 nM	400 nM			
CC(C)(C)C(=O)OCOP1(=O)OC[C@H]2O[C@@H](n3cnc4c(N)ncnc43)CC2OP(=O)(OCOC(=O)C(C)(C)C)OC[C@H]2C[C@@H](n3cnc4c(N)ncnc43)C(F)C2O1 (stereo partly drawn) [Compound 139a, (((2R,3aS,7aR,9R,10S,10aR,14aR)-2,9-bis(6-amino-9H-purin-9-yl)-10-fluoro-5,12-dioxidodecahydro-2H-cyclopenta[d]furo[3,2-j][1,3,7,9]tetraoxa[2,8]di-phosphacyclododecine-5,12-diyl)bis(oxy))bis(methylene) bis(2,2-dimethylpropanoate)]		3 nM	0.1 µM	0.1 µM	
Nc1ncnc2c1ncn2[C@@H]1C[C@@H]2COP(=O)(S)OC3C(F)[C@H](n4cnc5c(N)ncnc54)O[C@@H]3COP(=O)(S)OC2C1F (single isomer, unassigned) [Compound 102a]	110 nM	1800 nM			ΔTm at 150 µM (AQ STING (G230A-R293Q)): 11.2 °C; ΔTm at 150 µM (WT STING [2]): 6.7 °C
Nc1ncnc2c1ncn2[C@@H]1C[C@@H]2COP(=O)(S)OC3C(F)[C@H](n4cnc5c(N)ncnc54)O[C@@H]3COP(=O)(S)OC2C1F (single isomer, unassigned) [Compound 102b]	5 nM	700 nM			DSF ΔTm (° C.) AQ STING (AQ STING (G230A-R293Q)): 16.9 °C; DSF ΔTm (° C.) WT STING (WT STING [2]): 11.9 °C
CC(C)(C)C(=O)OCOP1(=O)OC[C@H]2O[C@@H](n3cnc4c(N)ncnc43)CC2OP(=O)(OCOC(=O)C(C)(C)C)OC[C@H]2C[C@@H](n3cnc4c(N)ncnc43)C(F)C2O1 (stereo partly drawn) [Compound 139b, (((2R,3aS,7aR,9R,10S,10aR,14aR)-2,9-bis(6-amino-9H-purin-9-yl)-10-fluoro-5,12-dioxidodecahydro-2H-cyclopenta[d]furo[3,2-j][1,3,7,9]tetraoxa[2,8]di-phosphacyclododecine-5,12-diyl)bis(oxy))bis(methylene) bis(2,2-dimethylpropanoate)]		1 nM			EC50 [4, 7]: 0.3 µM; EC50 [4, 8]: 0.1 µM; EC50 [4, 9]: 0.1 µM
Nc1ncnc2c1ncn2[C@@H]1C[C@@H]2COP(=O)(O)O[C@H]3[C@@H](F)[C@H](n4cnc5c(N)ncnc54)O[C@@H]3COP(=O)(S)O[C@H]2[C@H]1F (single isomer, unassigned) [Compound 130b]	10 nM	1200 nM			DSF ΔTm (° C.) AQ STING (AQ STING (G230A-R293Q)): 20.3 °C; DSF ΔTm (° C.) WT STING (WT STING [2]): 13.6 °C
CC1(C(=O)OCOP2(=O)OC[C@H]3O[C@@H](n4cnc5c(N)ncnc54)C(F)C3OP(=O)(OCOC(=O)C3(C)CCCCC3)OC[C@H]3C[C@@H](n4cnc5c(N)ncnc54)C(F)C3O2)CCCCC1 (some centres unmarked) [Compound 145c]		6 nM	0.01 µM	0.02 µM	EC50 [4, 10]: 0.04 µM
CC(C)(C)C(=O)OCOP1(=O)OC[C@H]2C[C@@H](n3cnc4c(N)ncnc43)C(F)C2OP(=O)(OCOC(=O)C(C)(C)C)OC[C@H]2C[C@@H](n3cnc4c(N)ncnc43)C(F)C2O1 (single isomer, unassigned) [Compound 138a]		70 nM	1.5 µM	1.9 µM	EC50 [4, 7]: 3.2 µM
CCCCCCCC(=O)OCOP1(=O)OC[C@H]2O[C@@H](n3cnc4c(N)ncnc43)[C@H](F)[C@@H]2OP(=O)(OCOC(=O)CCCCCCC)OC[C@H]2C[C@@H](n3cnc4c(N)ncnc43)[C@H](F)[C@@H]2O1 (single isomer, unassigned) [Compound 146a]		0.1 nM			EC50 [4, 10]: 0.04 µM
CCC(C)(C)C(=O)OCOP1(=O)OC[C@H]2O[C@@H](n3cnc4c(N)ncnc43)[C@H](F)[C@@H]2OP(=O)(OCOC(=O)C(C)(C)CC)OC[C@H]2C[C@@H](n3cnc4c(N)ncnc43)[C@H](F)[C@@H]2O1 (single isomer, unassigned) [Compound 144c]		1 nM	0.003 µM	0.002 µM	EC50 [4, 10]: 0.004 µM
CC(C)OC(=O)OCOP1(=O)OC[C@H]2O[C@@H](n3cnc4c(N)ncnc43)C(F)C2OP(=O)(OCOC(=O)OC(C)C)OC[C@H]2C[C@@H](n3cnc4c(N)ncnc43)C(F)C2O1 (stereo partly drawn) [Compound 143b, {[(1R,6R,8R,9R,10R,15R,17R,18S)-8,17-bis(6-amino-9H-purin-9-yl)-9,18-difluoro-3,12-dioxo-3-({[(propan-2-yloxy)carbonyl]oxy}methoxy)-2,4,7,11,13-pentaoxa-3λ^5,12λ^5-diphosphatricyclo[13.3.0.0^6,10]octadecan-12-yl]oxy}methyl propan-2-yl carbonate]		5 nM	0.15 µM	0.3 µM	EC50 [4, 10]: 0.3 µM
CCCCCCCC(=O)OCOP1(=O)OC[C@H]2O[C@@H](n3cnc4c(N)ncnc43)[C@H](F)[C@@H]2OP(=O)(OCOC(=O)CCCCCCC)OC[C@H]2C[C@@H](n3cnc4c(N)ncnc43)[C@H](F)[C@@H]2O1 (single isomer, unassigned) [Compound 146b]		0.3 nM			EC50 [4, 7]: 0.02 µM; EC50 [4, 8]: 0.01 µM; EC50 [4, 9]: 0.01 µM
Nc1ncnc2c1ncn2[C@@H]1C[C@@H]2COP(=O)(S)OC3C[C@H](n4cnc5c(N)ncnc54)O[C@@H]3COP(=O)(S)OC2C1F (single isomer, unassigned) [Compound 142b]	20 nM	500 nM			
Nc1nc2c(ncn2[C@@H]2O[C@@H]3COP(=O)(S)OC4C(F)[C@H](n5cnc6c(N)ncnc65)C[C@@H]4COP(=O)(S)OC3C2F)c(=O)[nH]1 (stereo partly drawn) [Compound 132b, (1R,6R,8R,9R,10R,15R,17R,18S)-8-(2-amino-6-oxo-6,9-dihydro-1H-purin-9-yl)-17-(6-amino-9H-purin-9-yl)-9,18-difluoro-3,12-disulfanyl-2,4,7,11,13-pentaoxa-3λ^5,12λ^5-diphosphatricyclo[13.3.0.0^6,10]octadecane-3,12-dione]	10 nM	200 nM			ΔTm at 150 µM (AQ STING (G230A-R293Q)): 26.1 °C; ΔTm at 150 µM (WT STING [2]): 18.6 °C
